# Results from BindingDB's records for doi:10.1021/ml100192b (2011).
# How the values were obtained:
# [1] = Inhibition of maltase in mouse intestinal input by glucose release assay
# [2] = Inhibition of lactase in mouse intestinal input by glucose release assay
smiles,measurement,setting,value
CCCCCCCOCCCCCN1C[C@H](O)[C@@H](O)[C@H](O)[C@H]1CO [N-Heptoxypentyl-1-deoxynojirimycin],IC50,[1],7 µM
same,IC50,[2],250 µM
CCCCCCCOCCCCCN1C[C@H](O)[C@@H](O)[C@H](O)[C@@H]1CO [N-Heptoxypentyl-L-ido-1-deoxynojirimycin],IC50,[1],> 1000 µM
same,IC50,[2],250 µM
